Assay [1] concerns E. coli. The settings on record: determined by another lab; cited from earlier work.
Assay [2] has as its system E. coli. Put plainly: AST by counting individual bacteria in a flow cytometry type instrument (Aquila 400); MIC from differential growth relative to positive control. The format is cell-based. Here is the method:
The sample was enriched for bacteria and at the same time the culture media was changed, in this case to Mueller-Hinton media (MH-media). E. coli bacteria were recovered via filtration through a 0.2 μm filter and the recovered bacteria were resuspended in MH-media to a concentration of approximately 10^8 CFU/ml in Müller Hinton broth before being diluted to approximately 10^6 CFU/ml in Müller Hinton Broth. Antibiotic solutions were prepared in a series of 2:1 serial dilutions in Müller Hinton broth at 10×test concentrations. The range of antibiotic concentrations was chosen based on identity of the bacteria and the antibiotic. […] A series of eight different concentrations was selected based on known clinical MIC values. Eight sample tubes containing 100 μl antibiotic solution at eight different concentrations and 800 μl Müller Hinton broth were prepared. One additional tube contains 900 μl Müller Hinton broth and no antibiotic as positive control. 100 μl bacterial suspension (10^6 CFU/ml) was added to all nine tubes. A negative control sample comprising 1000 μl Müller Hinton broth (i.e. no bacteria) is prepared as negative control. All tubes were incubated at 35° C. and samples were taken after 0, 4, 6 and 24 hours. Bacterial samples were prepared for counting as in Example 2. Bacterial AST profiles were determined using a flow cytometry based counting of individual bacteria in an Aquila 400 instrument (Q-linea AB, Sweden). Aquila 400 analysis was performed using the alexa 488 laser. […] MIC values for each antibiotic at different time points and cut-off values were calculated based on the differential bacterial growth.
(A flow cytometer gives signals particle by particle.)

In assay [3] the test system is E. coli. Put plainly: MIC with Macrobroth dilution. The settings on record: reference method; for MIC: Escherichia coli. The format is cell-based.
Setting [4] is: Escherichia coli, 4 h, cut-off 15%, 4 hours, Müller Hinton broth, 35° C., read-out: MIC.
The mark [5] stands for this setting: Escherichia coli, 4 h, cut-off 20%, 4 hours, Müller Hinton broth, 35° C., read-out: MIC.
The mark [6] stands for this setting: Escherichia coli, 6 h, cut-off 5%, 6 hours, Müller Hinton broth, 35° C., read-out: MIC.
Setting [7] is: Escherichia coli, 6 h, cut-off 10%, 6 hours, Müller Hinton broth, 35° C., read-out: MIC.
[8] abbreviates: Escherichia coli, 6 h, cut-off 15%, 6 hours, Müller Hinton broth, 35° C., read-out: MIC.
Where [9] appears, read: Escherichia coli, 6 h, cut-off 20%, 6 hours, Müller Hinton broth, 35° C., read-out: MIC.
Setting [10] is: Escherichia coli, 24 h, cut-off 15%, 24 hours, Müller Hinton broth, 35° C., read-out: MIC.
Where [11] appears, read: Escherichia coli, 24 h, cut-off 20%, 24 hours, Müller Hinton broth, 35° C., read-out: MIC.
Where [12] appears, read: Escherichia coli, 4 h, cut-off 5%, 4 hours, Müller Hinton broth, 35° C., read-out: MIC.
Where [13] appears, read: Escherichia coli, 4 h, cut-off 10%, 4 hours, Müller Hinton broth, 35° C., read-out: MIC.
The mark [14] stands for this setting: Escherichia coli, 24 h, cut-off 5%, 24 hours, Müller Hinton broth, 35° C., read-out: MIC.
[15] abbreviates: Escherichia coli, 24 h, cut-off 10%, 24 hours, Müller Hinton broth, 35° C., read-out: MIC.

Values after ≈ are worked out from the molar mass of the structure shown. Where only a bound is given, the exact number is not on record here.

Take `CO/N=C(\C(=O)N[C@@H]1C(=O)N2C(C(=O)O)=C(COC(C)=O)CS[C@H]12)c1csc(N)n1` [Cefotaxime]: the “MIC with E-test” value in assay [1] is ≤ 0.5 µg/mL. Besides, the MIC – broadly, the least concentration at which growth counts as inhibited – turned out to be 0.06 µg/mL (≈ 0.132 µM) in assay [2] (setting [4]); 0.06 µg/mL (≈ 0.132 µM) in assay [2] (setting [5]); 0.06 µg/mL (≈ 0.132 µM) in assay [2] (setting [6]); 0.06 µg/mL (≈ 0.132 µM) in assay [2] (setting [7]); 0.03 µg/mL (≈ 0.0659 µM) in assay [2] (setting [8]); 0.03 µg/mL (≈ 0.0659 µM) in assay [2] (setting [9]). Further, the MIC in assay [2] (setting [10]) and in assay [2] (setting [11]) was 0.06 µg/mL (≈ 0.132 µM) each time.

Turning to `CC(C)(O/N=C(\C(=O)N[C@@H]1C(=O)N2C(C(=O)[O-])=C(C[n+]3ccccc3)CS[C@H]12)c1csc(N)n1)C(=O)O` [Ceftazidime], the “MIC with E-test” value in assay [1] was ≤ 0.5 µg/mL. Also, the MIC in assay [3], in assay [2] (setting [12]), in assay [2] (setting [13]), in assay [2] (setting [14]), in assay [2] (setting [15]) and in assay [2] (setting [10]) was 0.25 µg/mL (≈ 0.457 µM) each time. The MIC in assay [2] (setting [11]) was 0.25 µg/mL (≈ 0.457 µM).

For the molecule `O=C(O)c1cn(C2CC2)c2cc(N3CCNCC3)c(F)cc2c1=O` [Ciprofloxacin], the “MIC with E-test” value in assay [1] was ≤ 0.03 µg/mL. Besides, the MIC in assay [3] came to 0.016 µg/mL (≈ 0.0483 µM); in assay [2] (setting [12]), 0.016 µg/mL (≈ 0.0483 µM); in assay [2] (setting [13]) it was 0.008 µg/mL (≈ 0.0241 µM); in assay [2] (setting [4]), 0.008 µg/mL (≈ 0.0241 µM); in assay [2] (setting [5]) it was 0.008 µg/mL (≈ 0.0241 µM); in assay [2] (setting [6]) it was 0.008 µg/mL (≈ 0.0241 µM). Also, the MIC stood at 0.008 µg/mL (≈ 0.0241 µM) in assay [2] (setting [7]); 0.008 µg/mL (≈ 0.0241 µM) in assay [2] (setting [8]); 0.004 µg/mL (≈ 0.0121 µM) in assay [2] (setting [9]); 0.008 µg/mL (≈ 0.0241 µM) in assay [2] (setting [14]); 0.008 µg/mL (≈ 0.0241 µM) in assay [2] (setting [15]); 0.008 µg/mL (≈ 0.0241 µM) in assay [2] (setting [10]). Further, the MIC in assay [2] (setting [11]) was found to be 0.008 µg/mL (≈ 0.0241 µM).

`C[C@@H](O)[C@H]1C(=O)N2C(C(=O)O)=C(S[C@@H]3CN[C@H](C(=O)N(C)C)C3)[C@H](C)[C@H]12` [Meropenem]: in assay [1], the “MIC with E-test” value is ≤ 0.25 µg/mL. For the same molecule, the MIC is 0.25 to 0.5 µg/mL (≈ 0.652 to 1.3 µM) in assay [3]; 0.5 µg/mL (≈ 1.3 µM) in assay [2] (setting [5]); 0.5 µg/mL (≈ 1.3 µM) in assay [2] (setting [8]); 0.25 µg/mL (≈ 0.652 µM) in assay [2] (setting [9]); 0.125 µg/mL (≈ 0.326 µM) in assay [2] (Escherichia coli, 24 h); 0.5 µg/mL (≈ 1.3 µM) in assay [2] (setting [14]). For the same molecule, the MIC amounted to 0.5 µg/mL (≈ 1.3 µM) in assay [2] (setting [15]) and 0.25 µg/mL (≈ 0.652 µM) in assay [2] (setting [10]).

With Gentamicin, the “MIC with E-test” value in assay [1] was 1 µg/mL. In assay [3], the “MIC with Macrobroth dilution” value fell in the range of 0.5 to 1 µg/mL. Also, the MIC in assay [2] (cut-off 5%, 4 hours, Müller Hinton broth, 35° C.) came to 1 µg/mL; in assay [2] (cut-off 5%, 6 hours, Müller Hinton broth, 35° C.), 0.5 µg/mL; in assay [2] (cut-off 5%, 24 hours, Müller Hinton broth, 35° C.), 1 µg/mL; in assay [2] (cut-off 10%, 4 hours, Müller Hinton broth, 35° C.), 0.5 µg/mL; in assay [2] (cut-off 10%, 6 hours, Müller Hinton broth, 35° C.), 0.5 µg/mL; in assay [2] (cut-off 10%, 24 hours, Müller Hinton broth, 35° C.), 1 µg/mL. In addition, the MIC in assay [2] (cut-off 15%, 4 hours, Müller Hinton broth, 35° C.) came to 0.5 µg/mL; in assay [2] (cut-off 15%, 6 hours, Müller Hinton broth, 35° C.) it was 0.5 µg/mL; in assay [2] (cut-off 15%, 24 hours, Müller Hinton broth, 35° C.) it was 1 µg/mL; in assay [2] (cut-off 20%, 4 hours, Müller Hinton broth, 35° C.) it was 0.5 µg/mL; in assay [2] (cut-off 20%, 6 hours, Müller Hinton broth, 35° C.) it was 0.5 µg/mL; in assay [2] (cut-off 20%, 24 hours, Müller Hinton broth, 35° C.), 1 µg/mL.

The record behind these values is patent publication US11505835B2, “Method for determining the identity and antimicrobial susceptibility of a microorganism” (Q-linea AB, priority 2014, dated 2022).
